Where a SMILES comes first, the peptide text is derived from it. [ ]: non-standard residue; d: D form. The star is where a group is joined. dPhe(4-NHCONH2) = NC(=O)Nc1ccc(C[C@@H](N)C(=O)O)cc1; Dihydroorotyl(S) = O=C1C[C@@H](C(=O)*)NC(=O)N1; dPhe(4-Cl) = N[C@H](Cc1ccc(Cl)cc1)C(=O)O; Phe(4-NH2) = Nc1ccc(C[C@H](N)C(=O)O)cc1; d2Nal = N[C@H](Cc1ccc2ccccc2c1)C(=O)O; Lys(iPr) = CC(C)NCCCC[C@H](N)C(=O)O; d3Pal = N[C@H](Cc1cccnc1)C(=O)O
Legend:
[1] = test system: mice exposed to L-TBI; assay: Mouse survival after lethal total body irradiation (L-TBI, 840cGy); type: in vivo
Description: Description. Inhibition of sex steroids, which can be achieved in a reversible fashion pharmacologically, is a well-described strategy to promote lymphopoiesis in the BM and thymus^8,7,14,15. Although the most common method of sex steroid ablation clinically has been to use LHRH-agonists, it was described that an LHRH-Antagonist represents a more rational approach to promote immediate ablation of sex steroids for immune regeneration as it is far more rapid and abrogates the initial surge in sex steroids that LHRH-Agonist cause^16. Taken together with the impact of sex steroid inhibition on HSC function and the rapid regenerative effects of LHRH-Ant, it was hypothesized that LHRH-Ant could represent a rational non-cellular medical countermeasure for mitigating radiation injury and promoting hematopoietic regeneration when administered after hematopoietic insult. […] It was then tested if LHRH-Ant could mediate even greater mouse survival when administered multiple times.
Methods. […] B6.SJL-Ptprca Pepcb/BoyJ (CD45.1) male mice (The Jackson Laboratory) were used between 7 and 12 weeks of age for transplant. Mice were irradiated with a Gammacell 40 Irradiator (Cs-137), with an average dose rate of 95 cGy/min, in a plexiglass mouse pie cage. To assess mouse survival after radiation, mice were monitored for up to 60 days after TBI. To adjust for differences in weight, identical mice were purchased from Jackson and cages randomly distributed over different groups. All animal protocols were approved by the Memorial Sloan Kettering Cancer Center Institutional Animal Care and Use Committee.
Reagents: Degarelix (as acetate), a LHRH-Ant (Firmagon), was resuspended in sterile water for injection and administered S.C. to mice at a dose of 40 mg/kg. To evaluate the radiomitigative effect of LHRH-Ant on survival, mice were treated subcutaneously (S.C.) with a single injection of the LHRH-Ant or a saline control solution (PBS). Degarelix was purchased from the Memorial Sloan-Kettering Cancer Center Pharmacy. […] MDV3100 (selleckchem) was resuspended in a mixture of 45% PBS, 45% PEG and 10% DMSO and administered daily to mice by oral gavage at a dose of 10 mg/kg. 5-FU (InvivoGen) was administered to mice intraperitoneally (I.P.) at a dose of 150 mg/kg once every 7 days consecutively for 3 times as previously described^34,47,49.

[2] = test system: mice challenged with successive doses of 5-FU; assay: Mouse survival after serial 5-fluorouracil (5-FU) challenge; type: in vivo; details: 5-FU 150 mg/kg I.P. once every 7 days, 3 times
Description: To test whether this LHRH-Ant-mediated preservation of HSC quiescence and enhancement of HSC survival after hematopoietic stress could confer protection against chemotherapy-induced myeloablation, mice were challenged with successive doses of 5-fluorouracil (5-FU); a well-established method to functionally test HSC proliferation and self-renewal that leads to ablation of proliferating HSCs and ultimately death^29,34,47.
Reagents: Degarelix (as acetate), a LHRH-Ant (Firmagon), was resuspended in sterile water for injection and administered S.C. to mice at a dose of 40 mg/kg. To evaluate the radiomitigative effect of LHRH-Ant on survival, mice were treated subcutaneously (S.C.) with a single injection of the LHRH-Ant or a saline control solution (PBS). Degarelix was purchased from the Memorial Sloan-Kettering Cancer Center Pharmacy. […] LH from human pituitary (SIGMA) was resuspended in PBS for in vitro studies. MDV3100 (selleckchem) was resuspended in a mixture of 45% PBS, 45% PEG and 10% DMSO and administered daily to mice by oral gavage at a dose of 10 mg/kg. 5-FU (InvivoGen) was administered to mice intraperitoneally (I.P.) at a dose of 150 mg/kg once every 7 days consecutively for 3 times as previously described^34,47,49.

SMILES: CC(=O)N[C@H](Cc1ccc2ccccc2c1)C(=O)N[C@H](Cc1ccc(Cl)cc1)C(=O)N[C@H](Cc1cccnc1)C(=O)N[C@@H](CO)C(=O)N[C@@H](Cc1ccc(NC(=O)[C@@H]2CC(=O)NC(=O)N2)cc1)C(=O)N[C@H](Cc1ccc(NC(N)=O)cc1)C(=O)N[C@@H](CC(C)C)C(=O)N[C@@H](CCCCNC(C)C)C(=O)N1CCC[C@H]1C(=O)N[C@H](C)C(N)=O [LHRH-Ant, Degarelix] (Ac-[d2Nal][dPhe(4-Cl)][d3Pal]S[Phe(4-NH2)](Dihydroorotyl(S))[dPhe(4-NHCONH2)]L[Lys(iPr)]P[dA]-NH2)
- survival after L-TBI ([1]; LHRH-Ant given 24 h after L-TBI, vs vehicle, male mice): significant increase in survival
- survival after L-TBI ([1]; administered 48 h after L-TBI): significantly enhanced mouse survival
- survival after L-TBI in female mice ([1]; female mice): statistically significant benefit in survival
- survival after L-TBI in surgically castrated mice ([1]; male mice castrated 5 days prior to TBI, simultaneous LHRH-Ant): restored the benefits in mouse survival
- survival after L-TBI, multiple administrations ([1]; treatment 24 h and 15 days after L-TBI, vs single treatment): did not significantly enhance the survival benefit
- survival after serial 5-FU challenge [2]: significantly improved survival

— patent US12295973B2 (Fred Hutchinson Cancer Center, priority 2017, dated 2025)
